Counter-ions that a name gives are not always drawn. Like-named read-outs stand apart in the source and are kept apart here.
How the values were obtained:
[1] = Salt screening (slurry crystallization); format: physicochemical; design: key to Salt screening result: (+) shows that a crystalline salt was formed; (−) physical mixtures; details: for Polymorph obtained in salt screening: XRPD; for Salt screening result: slurry 50° C. then 25° C.
Experimental: About 45 mg was added to a suitable solvent and different equivalents of acids were added under stirring at 50° C. for about 2 hours and then at 25° C. for at least 32 hours. Ethanol, acetone, and ACN were used as screening solvents. When no precipitation was obtained or only a few solids were obtained, the solutions were placed at 5° C. for crystallization.
(§1) Obtained suspensions were taken out and centrifuged. Solids obtained was analysed by XRPD. Salts with high or medium crystallinity were further characterized (see Table 5).

[2] = Hygroscopicity (water uptake) of salt hits; format: physicochemical; details: salt screening sample; for Hygroscopicity: grade in words
From the text: (§2) According to the salt screening results (see Table 4), totally 19 potential salt hits were identified. All the potential salt hits were further investigated by Differential Scanning Calorimetry (DSC), Thermogravimetric analysis (TGA), H-NMR, Ion chromatography (IC), Karl Fischer titration (KF), and Polarized Light Microscopy (PLM) to confirm their identity and evaluate their physicochemical properties as shown in Table 5 below.

[3] = Thermogravimetric analysis (TGA) weight loss; format: physicochemical; details: salt screening sample, at the temperature given (80-200° C.)
From the text: as §2

[4] = Crystallinity by XRPD; format: physicochemical; details: salt screening sample
Experimental: as §1, §2

[5] = format: physicochemical; details: salt screening sample
From the text: as §2

[6] = Solubility of diastereomeric salts in solvents; format: physicochemical; details: 20 °C, read-out: Solubility @ 20-30° C.
From the text: Thus, in another highly preferred embodiment, DCM is used in step c).

[7] = organic solvent or mixture, in Acetone
[8] = organic solvent or mixture, in DCM
[9] = organic solvent or mixture, in EtOAc
[10] = organic solvent or mixture, in EtOH
[11] = organic solvent or mixture, in Heptane
[12] = organic solvent or mixture, in IPA
[13] = organic solvent or mixture, in IPAC
[14] = organic solvent or mixture, in MEK
[15] = organic solvent or mixture, in MTBE
[16] = organic solvent or mixture, in MeOH
[17] = organic solvent or mixture, in THF
[18] = organic solvent or mixture, in Toluene

In the case of COc1cc(C(F)(F)F)c(OC)cc1[C@@H]1CCCNC1.N[C@@H](CC(=O)O)C(=O)O [L-aspartate salt Polymorph A], the “Polymorph obtained in salt screening” value ([1]; ACN) was “Polymorph A”, the Salt screening result ([1]; ACN) was “+” and the Salt screening result ([1]; Acetone) was “−”. For the same molecule, the “Polymorph obtained in salt screening” value ([1]; EtOH) was “Polymorph A”, the Salt screening result ([1]; EtOH) was “+” and the “Hygroscopicity (water uptake % w/w)” value [2] was “(~4.3%) % w/w”. For the same molecule, the Hygroscopicity [2] was “Hygroscopic”, the “Weight loss (%)” value [3] was 3.9% and the Crystallinity [4] was “High”. The “Water content (% w/w)” value [5] was 7.0% w/w.
With COc1cc(C(F)(F)F)c(OC)cc1[C@@H]1CCCNC1.COc1cc(C(F)(F)F)c(OC)cc1[C@@H]1CCCNC1.O=C(O)CCC(=O)O [Hemi-succinate salt Polymorph B] the “Polymorph obtained in salt screening” value ([1]; ACN) was “Polymorph A”, the Salt screening result ([1]; ACN) was “+” and the “Polymorph obtained in salt screening” value ([1]; Acetone) was “Polymorph A”. For the same molecule, the Salt screening result ([1]; Acetone) was “+”, the “Polymorph obtained in salt screening” value ([1]; EtOH) was “Polymorph A” and the Salt screening result ([1]; EtOH) was “+”. The “Hygroscopicity (water uptake % w/w)” value [2] was “(~1.8%) % w/w”, the Hygroscopicity [2] was “Hygroscopic” and the “Weight loss (%)” value [3] was 4.8%. For the same molecule, the Crystallinity [4] was “Medium”.
In the case of COc1cc(C(F)(F)F)c(OC)cc1[C@@H]1CCCNC1.O=P(O)(O)O [Phosphate salt Polymorph A], the Salt screening result ([1]; ACN) was “Hazy solution”, the “Polymorph obtained in salt screening” value ([1]; Acetone) was “Polymorph A” and the Salt screening result ([1]; Acetone) was “+”. For the same molecule, the Salt screening result ([1]; EtOH) was “Clear solution”, the “Weight loss (%)” value [3] was 0.7% and the Crystallinity [4] was “Medium”.
With COc1cc(C(F)(F)F)c(OC)cc1[C@H]1CCCNC1 [(−)-Di-p-anisoyl-L-tartaric acid salt of (R)-3-(2,5-dimethoxy-4-(trifluoromethyl)phenyl)piperidine (1:1)] the solubility [6, 7] was less than 10000 µg/mL, the solubility [6, 8] was greater than 400000 µg/mL and the solubility [6, 9] was less than 10000 µg/mL. The solubility [6, 10] was 25000 µg/mL, the solubility [6, 11] was less than 10000 µg/mL and the solubility [6, 12] was less than 10000 µg/mL. The solubility [6, 13] was less than 10000 µg/mL, the solubility [6, 14] was less than 10000 µg/mL and the solubility [6, 15] was less than 10000 µg/mL. The solubility [6, 16] was 40000 µg/mL, the solubility [6, 17] was 45000 µg/mL and the solubility [6, 18] was less than 10000 µg/mL. For the same molecule, the solubility ([6]; in Water) was less than 5000 µg/mL.
For Gentisic acid, the Salt screening result ([1]; ACN) was “Clear solution”, the Salt screening result ([1]; Acetone) was “Clear solution” and the Salt screening result ([1]; EtOH) was “Clear solution”.
With COc1cc(C(F)(F)F)c(OC)cc1[C@@H]1CCCNC1.N[C@@H](CCC(=O)O)C(=O)O [L-glutamate salt Polymorph B] the “Weight loss (%)” value [3] was 6.6%, the Crystallinity [4] was “Medium” and the “Water content (% w/w)” value [5] was 6.9% w/w.
With COc1cc(C(F)(F)F)c(OC)cc1[C@@H]1CCCNC1.C[C@H](O)C(=O)O [L-lactate salt Polymorph A] the “Polymorph obtained in salt screening” value ([1]; ACN) was “Polymorph A”, the Salt screening result ([1]; ACN) was “+” and the Salt screening result ([1]; Acetone) was “Thin suspension”. For the same molecule, the Salt screening result ([1]; EtOH) was “Clear solution”, the Hygroscopicity [2] was “None” and the “Weight loss (%)” value [3] was 4.9%. For the same molecule, the Crystallinity [4] was “High” and the “Water content (% w/w)” value [5] was 5.1% w/w.
For COc1cc(C(F)(F)F)c(OC)cc1[C@@H]1CCCNC1.N[C@@H](CCC(=O)O)C(=O)O [L-glutamate salt Polymorph C], the “Weight loss (%)” value [3] was 6.3%, the Crystallinity [4] was “High” and the “Water content (% w/w)” value [5] was 8.7% w/w.
For COc1cc(C(F)(F)F)c(OC)cc1[C@@H]1CCCNC1.COc1cc(C(F)(F)F)c(OC)cc1[C@@H]1CCCNC1.O=C(O)/C=C/C(=O)O [Hemi-fumarate salt Polymorph A], the “Weight loss (%)” value [3] was 4.8%, the Crystallinity [4] was “Medium” and the “Water content (% w/w)” value [5] was 5.5% w/w.
For Glutamic acid, the “Polymorph obtained in salt screening” value ([1]; ACN) was “Polymorph C”, the Salt screening result ([1]; ACN) was “+” and the Salt screening result ([1]; Acetone) was “+”. For the same molecule, the “Polymorph obtained in salt screening” value ([1]; EtOH) was “Polymorph A” and the Salt screening result ([1]; EtOH) was “+”.
In the case of COc1cc(C(F)(F)F)c(OC)cc1[C@@H]1CCCNC1.C[C@@H](O)C(=O)O [D-lactate salt Polymorph A], the Salt screening result ([1]; ACN) was “Clear solution”, the Salt screening result ([1]; Acetone) was “Thin suspension” and the “Polymorph obtained in salt screening” value ([1]; EtOH) was “Polymorph A”. For the same molecule, the Salt screening result ([1]; EtOH) was “+” and the Crystallinity [4] was “High”.
For COc1cc(C(F)(F)F)c(OC)cc1[C@@H]1CCCNC1.O=S(=O)(O)O [Sulfate salt Polymorph A], the “Polymorph obtained in salt screening” value ([1]; ACN) was “Polymorph A”, the Salt screening result ([1]; ACN) was “+” and the “Polymorph obtained in salt screening” value ([1]; Acetone) was “Polymorph A”. The Salt screening result ([1]; Acetone) was “+”, the “Polymorph obtained in salt screening” value ([1]; EtOH) was “Polymorph A” and the Salt screening result ([1]; EtOH) was “+”. For the same molecule, the “Weight loss (%)” value [3] was 8.2% and the Crystallinity [4] was “High”.
In the case of Citric acid, the Salt screening result ([1]; ACN) was “Clear solution”, the Salt screening result ([1]; Acetone) was “Clear solution” and the Salt screening result ([1]; EtOH) was “Clear solution”.
With COc1cc(C(F)(F)F)c(OC)cc1[C@@H]1CCCNC1.COc1cc(C(F)(F)F)c(OC)cc1[C@@H]1CCCNC1.O=C(O)/C=C/C(=O)O [Hemi-fumarate salt Polymorph B] the “Weight loss (%)” value [3] was 9.4%, the Crystallinity [4] was “Medium” and the “Water content (% w/w)” value [5] was 9.3% w/w.
Work on COc1cc(C(F)(F)F)c(OC)cc1[C@@H]1CCCNC1 [drawing 39, (−)-Di-p-anisoyl-L-tartaric acid salt of (S)-3-(2,5-dimethoxy-4-(trifluoromethyl)phenyl)piperidine (1:1)] yielded a solubility ([6]; organic solvent or mixture, in 2-MeTHF) of 50000 µg/mL, a solubility ([6]; organic solvent or mixture, in ACN) of 12000 µg/mL and a solubility [6, 7] of less than 10000 µg/mL. It also gave a solubility [6, 8] of less than 10000 µg/mL, a solubility [6, 9] of less than 10000 µg/mL and a solubility [6, 10] of 12000 µg/mL. The solubility [6, 11] was less than 10000 µg/mL, the solubility [6, 12] was less than 10000 µg/mL and the solubility [6, 13] was less than 10000 µg/mL. The solubility [6, 14] was less than 10000 µg/mL, the solubility [6, 15] was less than 10000 µg/mL and the solubility [6, 16] was 30000 µg/mL. For the same molecule, the solubility [6, 17] was 50000 µg/mL, the solubility [6, 18] was less than 10000 µg/mL and the solubility ([6]; in Water) was less than 5000 µg/mL.
For CC(=O)O.COc1cc(C(F)(F)F)c(OC)cc1[C@@H]1CCCNC1 [Acetate salt Polymorph A], the “Polymorph obtained in salt screening” value ([1]; ACN) was “Polymorph A”, the Salt screening result ([1]; ACN) was “+” and the “Polymorph obtained in salt screening” value ([1]; Acetone) was “Polymorph A”. For the same molecule, the Salt screening result ([1]; Acetone) was “+”, the Salt screening result ([1]; EtOH) was “Clear solution” and the Hygroscopicity [2] was “None”. For the same molecule, the “Weight loss (%)” value [3] was 0.2% and the Crystallinity [4] was “High”.
For COc1cc(C(F)(F)F)c(OC)cc1[C@@H]1CCCNC1.O=C(O)/C=C/C(=O)O [Mono-fumarate salt Polymorph C], the “Polymorph obtained in salt screening” value ([1]; ACN) was “Polymorph C”, the Salt screening result ([1]; ACN) was “+” and the “Polymorph obtained in salt screening” value ([1]; Acetone) was “Polymorph C”. The Salt screening result ([1]; Acetone) was “+”, the “Polymorph obtained in salt screening” value ([1]; EtOH) was “Polymorph C” and the Salt screening result ([1]; EtOH) was “+”. The “Hygroscopicity (water uptake % w/w)” value [2] was “(~0.2%) % w/w”, the “Weight loss (%)” value [3] was 0.6% and the Crystallinity [4] was “Medium”.
In the case of COc1cc(C(F)(F)F)c(OC)cc1[C@@H]1CCCNC1.N[C@@H](CCC(=O)O)C(=O)O [L-glutamate salt Polymorph A], the “Weight loss (%)” value [3] was 4.8%, the Crystallinity [4] was “Low” and the “Water content (% w/w)” value [5] was 8.6% w/w.
With COc1cc(C(F)(F)F)c(OC)cc1[C@@H]1CCCNC1.O=C(O)C[C@H](O)C(=O)O [L-malate salt Polymorph A] the “Polymorph obtained in salt screening” value ([1]; ACN) was “Polymorph A”, the Salt screening result ([1]; ACN) was “+” and the “Polymorph obtained in salt screening” value ([1]; Acetone) was “Polymorph A”. The Salt screening result ([1]; Acetone) was “+”, the “Polymorph obtained in salt screening” value ([1]; EtOH) was “Polymorph A” and the Salt screening result ([1]; EtOH) was “+”. For the same molecule, the “Hygroscopicity (water uptake % w/w)” value [2] was “(~0.3%) % w/w”, the “Weight loss (%)” value [3] was 2.3% and the Crystallinity [4] was “High”. For the same molecule, the “Water content (% w/w)” value [5] was 5.9% w/w.
With COc1cc(C(F)(F)F)c(OC)cc1[C@@H]1CCCNC1.COc1cc(C(F)(F)F)c(OC)cc1[C@@H]1CCCNC1.O=C(O)C(O)C(O)C(=O)O [Hemi L-tartrate salt Polymorph A] the “Polymorph obtained in salt screening” value ([1]; ACN) was “Polymorph A”, the Salt screening result ([1]; ACN) was “+” and the “Polymorph obtained in salt screening” value ([1]; Acetone) was “Polymorph A”. The Salt screening result ([1]; Acetone) was “+”, the “Polymorph obtained in salt screening” value ([1]; EtOH) was “Polymorph A” and the Salt screening result ([1]; EtOH) was “+”. For the same molecule, the “Weight loss (%)” value [3] was 4.0% and the Crystallinity [4] was “Medium”.

— US12723024B2 (priority 2021, dated 2026)
